Measurements published in ChEMBL document CHEMBL1201862, “PubChem BioAssay data set” (2004).
Activity calls are given as the source filed them.

How the values were obtained:
Assay type in all cases: functional
CHO-K1 = test: (§1) Counterscreen for antagonists of the orexin 1 receptor (OX1R; HCRTR1): Homogeneous time resolved fluorescence (HTRF)-based cell-based dose response assay to identify antagonists of the parental CHO-K1 cell line. [Related pubchem assays (depositor defined):AID434989, AID435008, AID463079, AID485270, AID492963, AID492964, AID492965, AID493232, AID504699, AID504701]; settings: Cricetulus griseus
[1] = as §1, with “Fluorescence-based” for “Homogeneous time resolved fluorescence (HTRF)-based”, “cell-based high throughput” for “cell-based”, “CHO” for “CHO-K1”
[2] = target: T1, Orexin/Hypocretin receptor type 1 (Homo sapiens, UniProt O43613); test: Homogeneous Time Resolved Fluorescence (HTRF)-based cell-based high throughput dose response assay for antagonists of the orexin 1 receptor (OX1R; HCRTR1). [Related pubchem assays (depositor defined):AID434989, AID435008, AID463079, AID485270, AID492963, AID492964, AID492965, AID493232, AID504717, AID504718]
T1 sequence (O43613 whole entry): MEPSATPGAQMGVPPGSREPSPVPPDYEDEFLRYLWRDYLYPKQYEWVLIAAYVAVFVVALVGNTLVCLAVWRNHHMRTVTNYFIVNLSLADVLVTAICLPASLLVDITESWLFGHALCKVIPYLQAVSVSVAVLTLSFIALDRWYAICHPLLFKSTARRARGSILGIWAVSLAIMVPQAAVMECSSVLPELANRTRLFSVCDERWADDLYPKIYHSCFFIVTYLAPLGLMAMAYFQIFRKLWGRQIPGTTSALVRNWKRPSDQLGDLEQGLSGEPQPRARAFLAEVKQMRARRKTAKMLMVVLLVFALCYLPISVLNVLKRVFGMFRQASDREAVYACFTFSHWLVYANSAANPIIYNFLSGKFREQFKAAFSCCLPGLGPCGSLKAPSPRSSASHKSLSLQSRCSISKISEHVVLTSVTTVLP

[3] = target: T1, Orexin/Hypocretin receptor type 1; test: Fluorescence-based cell-based high throughput dose response assay for antagonists of the orexin 1 receptor (OX1R; HCRTR1). [Related pubchem assays (depositor defined):AID434989, AID435008, AID463079, AID485270, AID492963, AID492964, AID492965, AID493232, AID504717, AID504718]
Orexin receptor type 2 [4] = target: T2, Orexin receptor type 2 (Homo sapiens, UniProt O43614); test: Counterscreen assay for antagonists of the orexin 1 receptor (OX1R; HCRTR1): Fluorescence-based cell-based dose response assay for antagonists of the orexin 2 receptor (OX2R; HCRTR2), run by assay provider.
T2 sequence (O43614 whole entry): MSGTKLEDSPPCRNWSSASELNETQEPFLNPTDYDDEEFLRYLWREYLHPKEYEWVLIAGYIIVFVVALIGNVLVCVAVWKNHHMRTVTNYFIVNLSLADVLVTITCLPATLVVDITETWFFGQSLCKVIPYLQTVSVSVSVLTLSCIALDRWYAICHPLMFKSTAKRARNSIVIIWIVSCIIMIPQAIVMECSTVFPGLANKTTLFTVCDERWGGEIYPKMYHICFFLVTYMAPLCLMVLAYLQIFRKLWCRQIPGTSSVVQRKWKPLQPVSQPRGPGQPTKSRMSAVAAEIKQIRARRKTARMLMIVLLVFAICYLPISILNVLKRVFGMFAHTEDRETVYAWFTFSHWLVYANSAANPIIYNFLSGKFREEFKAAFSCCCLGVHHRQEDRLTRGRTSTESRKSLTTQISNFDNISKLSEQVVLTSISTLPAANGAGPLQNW

Orexin receptor type 2 [5] = target: T2, Orexin receptor type 2; test: Counterscreen assay for antagonists of the orexin 1 receptor (OX1R; HCRTR1): Homogeneous Time Resolved Fluorescence (HTRF)-based cell-based dose response assay for antagonists of the orexin 2 receptor (OX2R; HCRTR2), run by assay provider.
[6] = target: T3, Sentrin-specific protease 8 (Homo sapiens, UniProt Q96LD8); test: inhibition of human SENP8 cleavage activity – biochemical, luminescence, SAR follow-up (AID 504501)
T3 sequence (Q96LD8 whole entry): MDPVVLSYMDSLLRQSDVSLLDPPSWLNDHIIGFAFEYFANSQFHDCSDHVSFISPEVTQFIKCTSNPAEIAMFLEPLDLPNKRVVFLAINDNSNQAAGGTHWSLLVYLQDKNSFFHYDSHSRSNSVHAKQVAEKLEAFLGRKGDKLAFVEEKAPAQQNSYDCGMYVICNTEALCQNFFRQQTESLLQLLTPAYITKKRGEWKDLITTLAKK

Caspase-3 = target: T4, Caspase-3 (Homo sapiens, UniProt P42574); test: SAR Analysis of small molecule inhibitors of Sentrin-specific proteases (SENPs) using a Caspase-3 Selectivity assay. [Related pubchem assays (depositor defined):AID2540, AID2599, AID434973, AID489001]
T4 sequence (P42574 whole entry): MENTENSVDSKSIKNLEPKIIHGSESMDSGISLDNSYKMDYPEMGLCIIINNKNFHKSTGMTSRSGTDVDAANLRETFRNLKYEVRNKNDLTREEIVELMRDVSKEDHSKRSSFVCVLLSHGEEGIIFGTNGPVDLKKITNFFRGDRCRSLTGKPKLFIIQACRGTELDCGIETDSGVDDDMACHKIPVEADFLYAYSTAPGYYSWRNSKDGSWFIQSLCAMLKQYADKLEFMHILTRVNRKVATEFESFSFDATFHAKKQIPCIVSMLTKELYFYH

[7] = target: T5, Sentrin-specific protease 6 (Homo sapiens, UniProt Q9GZR1); test: SAR Analysis of small molecule inhibitors of Sentrin-specific protease 6 (SENP6) using a Luminescent assay. [Related pubchem assays (depositor defined):AID2582, AID2599]
T5 sequence (Q9GZR1 whole entry): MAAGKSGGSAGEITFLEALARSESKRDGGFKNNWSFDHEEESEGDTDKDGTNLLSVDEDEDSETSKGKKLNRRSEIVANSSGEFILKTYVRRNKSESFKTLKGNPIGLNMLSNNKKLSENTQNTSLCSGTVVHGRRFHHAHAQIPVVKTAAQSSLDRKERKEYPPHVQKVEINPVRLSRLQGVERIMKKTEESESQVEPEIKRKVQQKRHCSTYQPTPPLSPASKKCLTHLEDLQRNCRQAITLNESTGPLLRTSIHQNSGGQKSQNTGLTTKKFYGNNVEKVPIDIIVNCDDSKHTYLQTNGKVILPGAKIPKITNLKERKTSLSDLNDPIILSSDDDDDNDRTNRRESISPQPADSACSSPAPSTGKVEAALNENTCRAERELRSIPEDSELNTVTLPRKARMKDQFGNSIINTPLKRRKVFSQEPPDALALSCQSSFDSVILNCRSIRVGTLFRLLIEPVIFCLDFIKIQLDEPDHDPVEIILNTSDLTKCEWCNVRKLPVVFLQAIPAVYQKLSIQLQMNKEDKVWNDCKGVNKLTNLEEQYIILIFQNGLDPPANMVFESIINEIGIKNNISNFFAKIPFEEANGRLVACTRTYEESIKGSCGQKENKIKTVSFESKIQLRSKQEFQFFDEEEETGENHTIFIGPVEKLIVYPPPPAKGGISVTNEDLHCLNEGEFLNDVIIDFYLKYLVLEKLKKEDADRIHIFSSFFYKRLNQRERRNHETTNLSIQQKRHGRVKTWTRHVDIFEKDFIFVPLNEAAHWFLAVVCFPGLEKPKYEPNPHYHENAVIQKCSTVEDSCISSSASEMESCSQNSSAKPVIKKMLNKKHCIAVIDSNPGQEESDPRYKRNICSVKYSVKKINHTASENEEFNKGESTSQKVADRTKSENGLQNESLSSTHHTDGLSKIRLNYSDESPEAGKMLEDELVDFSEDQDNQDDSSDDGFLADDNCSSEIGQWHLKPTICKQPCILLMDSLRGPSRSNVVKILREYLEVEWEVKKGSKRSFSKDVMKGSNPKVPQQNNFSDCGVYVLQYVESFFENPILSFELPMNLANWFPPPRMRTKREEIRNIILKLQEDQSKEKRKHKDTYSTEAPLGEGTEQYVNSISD

[8] = target: T6, Sentrin-specific protease 7 (Homo sapiens, UniProt Q9BQF6); test: inhibition of human SENP7 cleavage activity – biochemical, luminescence, SAR follow-up (AID 504497)
T6 sequence (Q9BQF6 whole entry): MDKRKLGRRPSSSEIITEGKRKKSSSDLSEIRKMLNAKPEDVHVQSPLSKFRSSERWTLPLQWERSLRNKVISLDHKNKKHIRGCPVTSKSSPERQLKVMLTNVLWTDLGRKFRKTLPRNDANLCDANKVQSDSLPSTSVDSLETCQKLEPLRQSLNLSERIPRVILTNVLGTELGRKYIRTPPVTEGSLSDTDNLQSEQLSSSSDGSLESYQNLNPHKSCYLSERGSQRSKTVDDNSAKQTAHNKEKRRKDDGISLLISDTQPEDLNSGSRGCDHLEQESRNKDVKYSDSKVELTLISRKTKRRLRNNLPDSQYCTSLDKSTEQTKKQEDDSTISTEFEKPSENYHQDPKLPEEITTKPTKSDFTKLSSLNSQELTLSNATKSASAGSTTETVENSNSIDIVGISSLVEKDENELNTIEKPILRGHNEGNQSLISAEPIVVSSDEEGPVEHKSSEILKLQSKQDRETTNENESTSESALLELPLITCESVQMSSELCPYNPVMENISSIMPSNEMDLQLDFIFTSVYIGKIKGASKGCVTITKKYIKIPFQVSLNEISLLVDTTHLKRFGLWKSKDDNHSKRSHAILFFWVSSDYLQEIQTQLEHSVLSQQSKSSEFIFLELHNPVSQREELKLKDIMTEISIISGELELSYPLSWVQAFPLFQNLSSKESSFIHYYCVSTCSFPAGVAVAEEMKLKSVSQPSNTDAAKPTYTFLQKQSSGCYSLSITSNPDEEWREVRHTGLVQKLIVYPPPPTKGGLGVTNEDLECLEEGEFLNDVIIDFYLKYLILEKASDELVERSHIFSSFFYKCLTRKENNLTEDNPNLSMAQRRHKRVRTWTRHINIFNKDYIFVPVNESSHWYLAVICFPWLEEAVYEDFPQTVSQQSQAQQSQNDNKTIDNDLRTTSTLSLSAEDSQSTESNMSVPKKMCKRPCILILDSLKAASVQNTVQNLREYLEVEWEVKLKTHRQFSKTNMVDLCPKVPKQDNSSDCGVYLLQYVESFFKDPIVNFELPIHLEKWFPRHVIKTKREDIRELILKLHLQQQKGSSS

Protein skinhead-1 = target: T7, Protein skinhead-1 (Caenorhabditis elegans, UniProt P34707)
T7 sequence (P34707 whole entry): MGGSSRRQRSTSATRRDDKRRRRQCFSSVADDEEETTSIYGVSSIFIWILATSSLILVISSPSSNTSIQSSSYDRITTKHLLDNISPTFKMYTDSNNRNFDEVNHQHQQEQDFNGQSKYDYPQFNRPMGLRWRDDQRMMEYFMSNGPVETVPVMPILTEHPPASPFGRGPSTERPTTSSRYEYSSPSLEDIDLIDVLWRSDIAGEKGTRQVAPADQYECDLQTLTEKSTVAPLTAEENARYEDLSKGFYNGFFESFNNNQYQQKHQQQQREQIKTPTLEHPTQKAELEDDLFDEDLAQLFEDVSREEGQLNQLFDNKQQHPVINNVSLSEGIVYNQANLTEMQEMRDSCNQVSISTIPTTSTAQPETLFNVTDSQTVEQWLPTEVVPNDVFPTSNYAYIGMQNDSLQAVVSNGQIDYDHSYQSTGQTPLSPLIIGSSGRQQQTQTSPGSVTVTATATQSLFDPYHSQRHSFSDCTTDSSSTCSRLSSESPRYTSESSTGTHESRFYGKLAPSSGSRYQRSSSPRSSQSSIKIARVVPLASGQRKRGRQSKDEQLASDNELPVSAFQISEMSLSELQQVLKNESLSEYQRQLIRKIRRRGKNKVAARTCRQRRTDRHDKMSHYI

[9] = target: Ras and Rab interactor 1/Tyrosine-protein kinase ABL1 (Homo sapiens, UniProt P00519+Q13671);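 further: biochemical TR-FRET dose-response test measuring inhibition of binding between Rin1 and Abl proteins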
Sequence of Ras and Rab interactor 1/Tyrosine-protein kinase ABL1 (P00519 whole entry): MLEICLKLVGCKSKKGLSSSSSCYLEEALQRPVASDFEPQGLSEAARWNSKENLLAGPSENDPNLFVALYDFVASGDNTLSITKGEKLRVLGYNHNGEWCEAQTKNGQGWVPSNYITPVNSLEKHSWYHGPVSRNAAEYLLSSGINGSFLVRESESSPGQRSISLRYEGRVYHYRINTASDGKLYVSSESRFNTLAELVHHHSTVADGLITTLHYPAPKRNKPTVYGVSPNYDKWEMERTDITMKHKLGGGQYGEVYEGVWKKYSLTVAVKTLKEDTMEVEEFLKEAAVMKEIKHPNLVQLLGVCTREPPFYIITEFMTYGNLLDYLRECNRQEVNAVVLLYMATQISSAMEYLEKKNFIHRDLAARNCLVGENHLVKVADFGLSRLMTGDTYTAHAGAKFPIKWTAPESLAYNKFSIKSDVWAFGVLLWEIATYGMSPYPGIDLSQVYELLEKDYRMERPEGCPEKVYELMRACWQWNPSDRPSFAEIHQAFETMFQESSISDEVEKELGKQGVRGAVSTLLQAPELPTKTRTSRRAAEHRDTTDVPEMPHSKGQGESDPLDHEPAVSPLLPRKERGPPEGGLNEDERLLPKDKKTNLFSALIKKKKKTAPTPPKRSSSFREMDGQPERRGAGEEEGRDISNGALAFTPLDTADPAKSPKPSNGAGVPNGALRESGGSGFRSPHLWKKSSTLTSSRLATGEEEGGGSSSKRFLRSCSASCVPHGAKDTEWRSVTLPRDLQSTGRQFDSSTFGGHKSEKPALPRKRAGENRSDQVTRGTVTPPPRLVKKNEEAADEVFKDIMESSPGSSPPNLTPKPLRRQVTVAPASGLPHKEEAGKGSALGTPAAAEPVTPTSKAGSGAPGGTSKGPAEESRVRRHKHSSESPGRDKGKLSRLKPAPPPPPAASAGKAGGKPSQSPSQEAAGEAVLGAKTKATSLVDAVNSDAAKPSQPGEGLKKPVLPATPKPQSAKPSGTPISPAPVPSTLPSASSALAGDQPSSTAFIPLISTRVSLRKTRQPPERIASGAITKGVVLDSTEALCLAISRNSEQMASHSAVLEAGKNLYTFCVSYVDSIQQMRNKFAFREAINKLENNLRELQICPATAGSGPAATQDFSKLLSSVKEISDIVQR
Sequence of Ras and Rab interactor 1/Tyrosine-protein kinase ABL1 (Q13671 whole entry): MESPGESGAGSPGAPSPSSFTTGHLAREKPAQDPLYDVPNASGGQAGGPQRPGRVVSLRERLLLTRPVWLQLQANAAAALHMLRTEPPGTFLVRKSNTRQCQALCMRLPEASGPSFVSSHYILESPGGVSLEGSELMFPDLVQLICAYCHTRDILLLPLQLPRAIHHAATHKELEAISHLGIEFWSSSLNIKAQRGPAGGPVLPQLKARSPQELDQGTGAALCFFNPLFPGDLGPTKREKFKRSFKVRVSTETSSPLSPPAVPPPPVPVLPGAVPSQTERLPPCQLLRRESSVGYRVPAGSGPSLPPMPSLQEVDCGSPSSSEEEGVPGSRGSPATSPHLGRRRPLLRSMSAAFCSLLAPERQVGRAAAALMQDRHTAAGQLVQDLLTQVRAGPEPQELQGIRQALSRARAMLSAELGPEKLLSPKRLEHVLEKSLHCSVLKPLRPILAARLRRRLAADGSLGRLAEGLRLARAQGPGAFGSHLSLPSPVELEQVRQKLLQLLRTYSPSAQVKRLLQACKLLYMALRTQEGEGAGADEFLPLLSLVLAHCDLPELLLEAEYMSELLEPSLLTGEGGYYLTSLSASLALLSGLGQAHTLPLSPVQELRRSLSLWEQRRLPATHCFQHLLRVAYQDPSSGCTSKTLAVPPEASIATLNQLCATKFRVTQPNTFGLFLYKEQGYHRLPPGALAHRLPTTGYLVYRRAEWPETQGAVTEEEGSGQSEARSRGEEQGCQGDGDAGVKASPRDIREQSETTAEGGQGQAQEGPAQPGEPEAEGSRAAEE

With `COc1ccc(NC(=O)C(=O)Nc2cccc3cccnc23)cc1OC` the IC50 (CHO-K1) was > 66.2 µM (inactive), the IC50 [1] was > 49.8 µM (inactive) and the IC50 [2] was 0.475 µM (active). The IC50 [3] was 1.34 µM (active), the IC50 (Orexin receptor type 2 [4]) was > 88.8 µM (inactive) and the IC50 (Orexin receptor type 2 [5]) was > 50 µM (inactive).
With `Fc1ccc(/C=C/c2nnc(-c3cccs3)o2)cc1` the IC50 [6] was 47 µM (active), the IC50 (Caspase-3) was 6.4 µM (active) and the IC50 [7] was 39 µM (active). For the same compound, the IC50 [8] was 4.3 µM (active) and the IC50 (Protein skinhead-1) was > 100 µM (inactive).
In the case of `COc1ccc(S(=O)(=O)N2CCCCCC2)cc1C(=O)Nc1ccc(C(=O)N(C)C)cc1`, the IC50 [9] is reported as 8.07 µM (active).
